Measured values taken from patent publication US20240307419A1, “CONFORMATIONALLY-CONSTRAINED INHIBITORS OF 3C OR 3C-LIKE PROTEASES” (priority 2021, published 2024).

Key:
[1] = target: SARS-CoV-2 3CLpro (Severe acute respiratory syndrome coronavirus 2 (2019-nCoV) (SARS-CoV-2), UniProt P0DTD1); test: biochemical; assay type: biochemical; conditions: for IC50: read-out: IC50
[2] = system: Huh-7, CRFK, or CCL1 cells
[3] = target: MERS-CoV 3CLpro (Middle East respiratory syndrome-related coronavirus (isolate United Kingdom/H123990006/2012) (MERS-CoV) (Betacoronavirus England 1), UniProt K9N7C7); assay type: biochemical
Sequence of MERS-CoV 3CLpro (K9N7C7 3248-3553 limits assumed): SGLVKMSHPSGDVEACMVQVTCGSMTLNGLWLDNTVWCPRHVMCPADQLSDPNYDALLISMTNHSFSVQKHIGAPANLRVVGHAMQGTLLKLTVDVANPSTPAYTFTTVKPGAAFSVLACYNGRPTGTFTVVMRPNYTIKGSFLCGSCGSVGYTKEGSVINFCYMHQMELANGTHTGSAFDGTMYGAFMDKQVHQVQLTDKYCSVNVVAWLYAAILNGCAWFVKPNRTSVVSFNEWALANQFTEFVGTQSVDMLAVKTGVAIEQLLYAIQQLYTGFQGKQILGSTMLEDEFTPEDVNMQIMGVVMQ

[4] = system: SARS-CoV-2 replicon; test: microbe, parasite or virus in culture; assay type: cell-based; conditions: Severe acute respiratory syndrome coronavirus 2, HEK-293T, 30 h, read-out: EC50, SARS-CoV-2 replicon assay
[5] = system: CRFK cells; conditions: cat

Row | Structure (SMILES) | IC50 [1] [nM] | CC50 [2] [nM] | IC50 [3] [nM] | decrease in potency compared to 2k/3k [1] [fold] | EC50 [4] [nM] | CC50 [5] [nM]
1 | [2H]C([2H])(OC(=O)N[C@@H](CC(C)C)C(=O)N[C@H](C=O)C[C@@H]1CCNC1=O)[C@@H]1C[C@@H]2C=CC[C@@H](C2)C1 [Compound 2d, ((1S,3S,5R)-Bicyclo[3.3.1]non-6-en-3-yl)methyl-d2 ((S)-4-methyl-1-oxo-1-(((S)-1-oxo-3-((S)-2-oxopyrrolidin-3-yl)propan-2-yl)amino)pentan-2-yl)carbamate] | 280 ± 80 | > 100000 | – | – | – | –
2 | CC(C)C[C@H](NC(=O)OCC1CC2C=CC1C2)C(=O)N[C@H](C=O)C[C@@H]1CCNC1=O (stereo partly drawn) [Compound 2e, Bicyclo[2.2.1]hept-5-en-2-ylmethyl ((S)-4-methyl-1-oxo-1-(((S)-1-oxo-3-((S)-2-oxopyrrolidin-3-yl)propan-2-yl)amino)pentan-2-yl)carbamate] | 260 ± 50 | > 100000 | – | – | – | –
3 | CC(C)C[C@H](NC(=O)OCC1CC2CCC1C2)C(=O)N[C@H](C=O)C[C@@H]1CCNC1=O (stereo partly drawn) [Compound 2f, Bicyclo[2.2.1]heptan-2-ylmethyl ((S)-4-methyl-1-oxo-1-(((S)-1-oxo-3-((S)-2-oxopyrrolidin-3-yl)propan-2-yl)amino)pentan-2-yl)carbamate] | 140 ± 20 | > 100000 | 63 ± 3 | – | – | –
4 | CC(C)C[C@H](NC(=O)O[C@@H]1C[C@H]2CC[C@@H](C1)N2C(=O)OC(C)(C)C)C(=O)N[C@H](C=O)C[C@@H]1CCNC1=O [Compound 2g, tert-Butyl (1R,3s,5S)-3-((((S)-4-methyl-1-oxo-1-(((S)-1-oxo-3-((S)-2-oxopyrrolidin-3-yl)propan-2-yl)amino)pentan-2-yl)carbamoyl)oxy)-8-azabicyclo[3.2.1]octane-8-carboxylate] | 1900 ± 140 | > 100000 | – | – | – | –
5 | CC(C)C[C@H](NC(=O)O[C@@H]1C[C@H]2CC[C@@H](C1)N2C(=O)OCc1ccccc1)C(=O)N[C@H](C=O)C[C@@H]1CCNC1=O [Compound 2h, Benzyl (1R,3s,5S)-3-((((S)-4-methyl-1-oxo-1-(((S)-1-oxo-3-((S)-2-oxopyrrolidin-3-yl)propan-2-yl)amino)pentan-2-yl)carbamoyl)oxy)-8-azabicyclo[3.2.1]octane-8-carboxylate] | 390 ± 20 | > 100000 | – | – | – | –
6 | [2H]C([2H])(OC(=O)N[C@@H](CC(C)C)C(=O)N[C@H](C=O)C[C@@H]1CCNC1=O)C12CCC(CCCCC)(CC1)CC2 [Compound 2j, (4-Pentylbicyclo[2.2.2]octan-1-yl)methyl-d2 ((S)-4-methyl-1-oxo-1-(((S)-1-oxo-3-((S)-2-oxopyrrolidin-3-yl)propan-2-yl)amino)pentan-2-yl)carbamate] | 310 ± 30 | 20000 ± 3000 | – | – | – | –
7 | CC(C)C[C@H](NC(=O)OCC12CC3CC(CC(C3)C1)C2)C(=O)N[C@H](C=O)C[C@H]1CCNC1=O [Compound 2k, ((3S,5S,7S)-Adamantan-1-yl)methyl((S)-4-methyl-1-oxo-1-(((S)-1-oxo-3-((S)-2-oxopyrrolidin-3-yl)propan-2-yl)amino)pentan-2-yl)carbamate] | 180 ± 40 | > 100000 | 55 ± 2 | – | – | –
8 | CC(C)C[C@H](NC(=O)OCCC12CC3CC(CC(C3)C1)C2)C(=O)N[C@H](C=O)C[C@H]1CCNC1=O [Compound 2m, 2-((3S,5S,7S)-Adamantan-1-yl)ethyl ((S)-4-methyl-1-oxo-1-(((S)-1-oxo-3-((S)-2-oxopyrrolidin-3-yl)propan-2-yl)amino)pentan-2-yl)carbamate] | 270 ± 20 | > 100000 | – | – | – | –
9 | CC(C)C[C@H](NC(=O)OC[C@@]12C[C@@H]3C[C@@H](C[C@@](O)(C3)C1)C2)C(=O)N[C@H](C=O)C[C@@H]1CCNC1=O [Compound 2n, ((1r,3R,5R,7S)-3-Hydroxyadamantan-1-yl)methyl ((S)-4-methyl-1-oxo-1-(((S)-1-oxo-3-((S)-2-oxopyrrolidin-3-yl)propan-2-yl)amino)pentan-2-yl)carbamate] | 820 ± 190 | > 100000 | – | ~5 | – | –
10 | [2H]C([2H])(OC(=O)N[C@@H](CC(C)C)C(=O)N[C@@H](C[C@@H]1CCNC1=O)C(O)S(=O)(=O)[O-])[C@@H]1C[C@@H]2C=CC[C@@H](C2)C1.[Na+] (stereo partly drawn) [Compound 3d, Sodium (2S)-2-((S)-2-(((((1S,3S,5R)-bicyclo[3.3.1]non-6-en-3-yl)methoxy-d2)carbonyl)amino)-4-methylpentanamido)-1-hydroxy-3-((S)-2-oxopyrrolidin-3-yl)propane-1-sulfonate] | 300 ± 30 | > 100000 | – | – | – | –
11 | CC(C)C[C@H](NC(=O)OCC1CC2C=CC1C2)C(=O)N[C@@H](C[C@@H]1CCNC1=O)C(O)S(=O)(=O)O (stereo partly drawn) [Compound 3e, Sodium (2S)-2-((2S)-2-(((bicyclo[2.2.1]hept-5-en-2-ylmethoxy)carbonyl)amino)-4-methylpentanamido)-1-hydroxy-3-((S)-2-oxopyrrolidin-3-yl)propane-1-sulfonate] | 280 ± 30 | > 100000 | – | – | – | –
12 | CC(C)C[C@H](NC(=O)OCC1CC2CCC1C2)C(=O)N[C@@H](C[C@@H]1CCNC1=O)C(O)S(=O)(=O)O (stereo partly drawn) [Compound 3f, Sodium (2S)-2-((2S)-2-(((bicyclo[2.2.1]heptan-2-ylmethoxy)carbonyl)amino)-4-methylpentanamido)-1-hydroxy-3-((S)-2-oxopyrrolidin-3-yl)propane-1-sulfonate] | 100 ± 10 | > 100000 | 58 ± 2 | – | – | –
13 | CC(C)C[C@H](NC(=O)OC1CC2CCC(C1)N2C(=O)OC(C)(C)C)C(=O)N[C@@H](C[C@H]1CCNC1=O)C(O)S(=O)(=O)O (stereo partly drawn) [Compound 3g, Sodium (2S)-2-((S)-2-(((((1R,3s,5S)-8-(tert-butoxycarbonyl)-8-azabicyclo[3.2.1]octan-3-yl)oxy)carbonyl)amino)-4-methylpentanamido)-1-hydroxy-3-((S)-2-oxopyrrolidin-3-yl)propane-1-sulfonate] | 1710 ± 160 | > 100000 | – | – | – | –
14 | CC(C)C[C@H](NC(=O)OC1CC2CCC(C1)N2C(=O)OCc1ccccc1)C(=O)N[C@@H](C[C@H]1CCNC1=O)C(O)S(=O)(=O)O (stereo partly drawn) [Compound 3h, Sodium (2S)-2-((S)-2-(((((1R,3s,5S)-8-((benzyloxy)carbonyl)-8-azabicyclo[3.2.1]octan-3-yl)oxy)carbonyl)amino)-4-methylpentanamido)-1-hydroxy-3-((S)-2-oxopyrrolidin-3-yl)propane-1-sulfonate] | 370 ± 30 | > 100000 | – | – | – | –
15 | CC(C)C[C@H](NC(=O)OCC12CC3CC(CC(C3)C1)C2)C(=O)N[C@@H](C[C@H]1CCNC1=O)C(O)S(=O)(=O)O (stereo partly drawn) [Compound 3k, Sodium (2S)-2-((S)-2-(((((3S,5S,7S)-adamantan-1-yl)methoxy)carbonyl)amino)-4-methylpentanamido)-1-hydroxy-3-((S)-2-oxopyrrolidin-3-yl)propane-1-sulfonate] | 150 ± 40 | > 100000 | 53 ± 3 | – | – | –
16 | CC(C)C[C@H](NC(=O)OCCC12CC3CC(CC(C3)C1)C2)C(=O)N[C@@H](C[C@H]1CCNC1=O)C(O)S(=O)(=O)O (stereo partly drawn) [Compound 3m, Sodium (2S)-2-((S)-2-(((2-((3S,5S,7S)-adamantan-1-yl)ethoxy)carbonyl)amino)-4-methylpentanamido)-1-hydroxy-3-((S)-2-oxopyrrolidin-3-yl)propane-1-sulfonate] | 250 ± 40 | > 100000 | – | – | – | –
17 | CC(C)C[C@H](NC(=O)OCC12CC3CC(CC(O)(C3)C1)C2)C(=O)N[C@@H](C[C@H]1CCNC1=O)C(O)S(=O)(=O)[O-].[Na+] (stereo partly drawn) [Compound 3n, Sodium (2S)-1-hydroxy-2-((S)-2-(((((1r,3R,5R,7S)-3-hydroxyadamantan-1-yl)methoxy)carbonyl)amino)-4-methylpentanamido)-3-((S)-2-oxopyrrolidin-3-yl)propane-1-sulfonate] | 1030 ± 240 | > 100000 | – | ~5 | – | –
18 | CC(C)C[C@H](NC(=O)OC1CC2(CCN(C(=O)OC(C)(C)C)CC2)C1)C(=O)N[C@@H](C[C@H]1CCNC1=O)C(O)S(=O)(=O)O (stereo partly drawn) [Compound 7c, Sodium (2S)-2-((S)-2-((((7-(tert-butoxycarbonyl)-7-azaspiro[3.5]nonan-2-yl)oxy)carbonyl)amino)-4-methylpentanamido)-1-hydroxy-3-((R)-2-oxopyrrolidin-3-yl)propane-1-sulfonate] | – | – | – | – | 80 | > 100000
19 | CC(C)C[C@H](NC(=O)OCC1CN(C(=O)OC(C)(C)C)C1)C(=O)N[C@H](C=O)C[C@H]1CCNC1=O [Compound 14b, Tert-butyl 3-(((((S)-4-methyl-1-oxo-1-(((S)-1-oxo-3-((R)-2-oxopyrrolidin-3-yl)propan-2-yl)amino)pentan-2-yl)carbamoyl)oxy)methyl)azetidine-1-carboxylate] | – | – | – | – | 380 | > 100000
20 | CC(C)C[C@H](NC(=O)OCC1CN(C(=O)C2CC3CCC2C3)C1)C(=O)N[C@@H](C[C@H]1CCNC1=O)C(O)S(=O)(=O)O (stereo partly drawn) [Compound 16c, Sodium (2S)-2-((2S)-2-((((1-(bicyclo[2.2.1]heptane-2-carbonyl)azetidin-3-yl)methoxy)carbonyl)amino)-4-methylpentanamido)-1-hydroxy-3-((R)-2-oxopyrrolidin-3-yl)propane-1-sulfonate] | – | – | – | – | – | > 100000
21 | CC(C)C[C@H](NC(=O)OCC1CN(S(C)(=O)=O)C1)C(=O)N[C@H](C=O)C[C@H]1CCNC1=O [Compound 17b, (1-(Methylsulfonyl)azetidin-3-yl)methyl ((S)-4-methyl-1-oxo-1-(((S)-1-oxo-3-((R)-2-oxopyrrolidin-3-yl)propan-2-yl)amino)pentan-2-yl)carbamate] | – | – | – | – | – | > 100000
22 | CC(C)C[C@H](NC(=O)OCC1CN(S(C)(=O)=O)C1)C(=O)N[C@@H](C[C@H]1CCNC1=O)C(O)S(=O)(=O)O (stereo partly drawn) [Compound 17c, Sodium (2S)-1-hydroxy-2-((S)-4-methyl-2-((((1-(methylsulfonyl)azetidin-3-yl)methoxy)carbonyl)amino)pentanamido)-3-((R)-2-oxopyrrolidin-3-yl)propane-1-sulfonate] | – | – | – | – | – | > 100000
